Values after ≈ are worked out from the molar mass of the structure shown.
Columns and labels:
Experiment in all cases: in vitro antibacterial evaluation, MIC by broth dilution
Format in all cases: cell-based
Staphylococcus sp. = conditions: broth dilution, 18 hours at 35° C.; for MIC Staphylococcus aureus (ATCC 29213): strain ATCC 29213; for MIC Staphylococcus aureus (GC 1131): strain GC 1131; for MIC Staphylococcus aureus (GC 3051): strain GC 3051; for MIC Staphylococcus aureus (GC 3053): strain GC 3053; for MIC Staphylococcus aureus (GC 4541): strain GC 4541; for MIC Staphylococcus aureus (GC 4542): strain GC 4542; for MIC Staphylococcus aureus-SMITH (GC 4543): strain GC 4543; for MIC Staphylococcus aureus (GC 4544): strain GC 4544; for MIC Staphylococcus aureus (GC 4545): strain GC 4545; for MIC Staphylococcus haemolyticus (GC 4546): strain GC 4546; for MIC Coagulase Negative Staphylococcus (GC 4547): strain GC 4547; for MIC Coagulase Negative Staphylococcus (GC 4548): strain GC 4548; for MIC Coagulase Negative Staphylococcus (GC 4549): strain GC 4549; for MIC Coagulase Negative Staphylococcus (GC 4551): strain GC 4551; for MIC Coagulase Negative Staphylococcus (GC 6257): strain GC 6257
Method in brief: (§1)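 Test organisms, which included recent clinical isolates resistant to methicillin, penicillin and/or vancomycin, were inoculated at 5×10^5 CFU/mL into Muller-Hinton II […] containing antibiotic at 64-0.06 μg/mL. Minimum inhibitory concentrations were then read as the lowest level inhibiting growth.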

Streptococcus sp. = conditions: broth dilution, 18 hours at 35° C.; for MIC Streptococcus pneumoniae (ATCC 6301): strain ATCC 6301; for MIC Streptococcus pneumoniae (GC 1894): strain GC 1894; for MIC Streptococcus pyogenes (GC 4563): strain GC 4563; for MIC Streptococcus agalactiae (GC 4564): strain GC 4564; for MIC Streptococcus pneumoniae (GC 4565): strain GC 4565
Method in brief: as §1

Enterococcus sp. = conditions: broth dilution, 18 hours at 35° C.; for MIC Enterococcus faecalis (ATCC 29212): strain ATCC 29212; for MIC Enterococcus faecalis (GC 2242): strain GC 2242; for MIC Enterococcus faecium (GC 2243): strain GC 2243; for MIC Enterococcus faecalis (GC 2691): strain GC 2691; for MIC Enterococcus faecalis (GC 3059): strain GC 3059; for MIC Enterococcus faecalis (GC 4552): strain GC 4552; for MIC Enterococcus faecalis (GC 4553): strain GC 4553; for MIC Enterococcus faecalis (GC 4554): strain GC 4554; for MIC Enterococcus faecium (GC 4556): strain GC 4556; for MIC Enterococcus faecium (GC 4557): strain GC 4557; for MIC Enterococcus avium (GC 4558): strain GC 4558; for MIC Enterococcus faecalis (GC 6189): strain GC 6189
Method in brief: as §1

Escherichia coli = conditions: broth dilution, 18 hours at 35° C.; for MIC Escherichia coli (ATCC 25922): strain ATCC 25922; for MIC Escherichia coli (GC 4559): strain GC 4559; for MIC Escherichia coli (GC 4560): strain GC 4560
Method in brief: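 MIC is the lowest antibiotic concentration (tested 64-0.06 μg/mL) preventing growth of a 5×10^5 CFU/mL inoculum. Determined by broth dilution in Mueller-Hinton II medium following NCCLS standard M7-A2.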

Row | SMILES | MIC Staphylococcus aureus (ATCC 29213) (Staphylococcus sp.) [µg/mL] | MIC Staphylococcus aureus (GC 1131) (Staphylococcus sp.) [µg/mL] | MIC Staphylococcus aureus (GC 3051) (Staphylococcus sp.) [µg/mL] | MIC Staphylococcus aureus (GC 3053) (Staphylococcus sp.) [µg/mL] | MIC Staphylococcus aureus (GC 4541) (Staphylococcus sp.) [µg/mL] | MIC Staphylococcus aureus (GC 4542) (Staphylococcus sp.) [µg/mL] | MIC Staphylococcus aureus-SMITH (GC 4543) (Staphylococcus sp.) [µg/mL] | MIC Staphylococcus aureus (GC 4544) (Staphylococcus sp.) [µg/mL] | MIC Staphylococcus aureus (GC 4545) (Staphylococcus sp.) [µg/mL] | MIC Staphylococcus haemolyticus (GC 4546) (Staphylococcus sp.) [µg/mL] | MIC Coagulase Negative Staphylococcus (GC 4547) (Staphylococcus sp.) [µg/mL] | MIC Coagulase Negative Staphylococcus (GC 4548) (Staphylococcus sp.) [µg/mL] | MIC Coagulase Negative Staphylococcus (GC 4549) (Staphylococcus sp.) [µg/mL] | MIC Coagulase Negative Staphylococcus (GC 4551) (Staphylococcus sp.) [µg/mL] | MIC Coagulase Negative Staphylococcus (GC 6257) (Staphylococcus sp.) [µg/mL] | MIC Streptococcus pneumoniae (ATCC 6301) (Streptococcus sp.) [µg/mL] | MIC Streptococcus pneumoniae (GC 1894) (Streptococcus sp.) [µg/mL] | MIC Streptococcus pyogenes (GC 4563) (Streptococcus sp.) [µg/mL] | MIC Streptococcus agalactiae (GC 4564) (Streptococcus sp.) [µg/mL] | MIC Streptococcus pneumoniae (GC 4565) (Streptococcus sp.) [µg/mL] | other results
1 | CC(c1ccccc1)C1NC(=O)CNC(=O)C(CO)NC(=O)C(C(O)C2CNC(=N)N2C2OC(CO)C(O)C(O)C2O)NC(=O)C(C(O)C2CNC(=N)N2)NC(=O)C(Cc2ccc3oc(-c4ccoc4)nc3c2)NC1=O (stereo not drawn) [Example 38, Cyclo[3-[2-(3-furyl)-1,3-benzoxazol-5-yl]alanyl-3-(2-iminoimidazolidin-4-yl)seryl-3-(3-hexopyranosyl-2-iminoimidazolidin-4-yl)serylserylglycyl-β-methylphenylalanyl]] | 64 (≈ 60.3 µM) | 32 (≈ 30.1 µM) | 64 (≈ 60.3 µM) | 64 (≈ 60.3 µM) | 64 (≈ 60.3 µM) | 64 (≈ 60.3 µM) | 64 (≈ 60.3 µM) | 64 (≈ 60.3 µM) | 32 (≈ 30.1 µM) | 16 (≈ 15.1 µM) | 32 (≈ 30.1 µM) | 32 (≈ 30.1 µM) | 64 (≈ 60.3 µM) | 64 (≈ 60.3 µM) | 16 (≈ 15.1 µM) | 32 (≈ 30.1 µM) | 32 (≈ 30.1 µM) | 32 (≈ 30.1 µM) | 32 (≈ 30.1 µM) | 64 (≈ 60.3 µM) | MIC Enterococcus faecalis (ATCC 29212) (Enterococcus sp.): 128 µg/mL (≈ 121 µM); MIC Enterococcus faecalis (GC 2242) (Enterococcus sp.): 128 µg/mL (≈ 121 µM); MIC Enterococcus faecium (GC 2243) (Enterococcus sp.): 128 µg/mL (≈ 121 µM); MIC Enterococcus faecalis (GC 2691) (Enterococcus sp.): 128 µg/mL (≈ 121 µM); MIC Enterococcus faecalis (GC 3059) (Enterococcus sp.): >128 µg/mL; MIC Enterococcus faecalis (GC 4552) (Enterococcus sp.): 128 µg/mL (≈ 121 µM); MIC Enterococcus faecalis (GC 4553) (Enterococcus sp.): 64 µg/mL (≈ 60.3 µM); MIC Enterococcus faecalis (GC 4554) (Enterococcus sp.): 128 µg/mL (≈ 121 µM); MIC Enterococcus faecium (GC 4556) (Enterococcus sp.): 128 µg/mL (≈ 121 µM); MIC Enterococcus faecium (GC 4557) (Enterococcus sp.): 32 µg/mL (≈ 30.1 µM); MIC Enterococcus avium (GC 4558) (Enterococcus sp.): 64 µg/mL (≈ 60.3 µM); MIC Enterococcus faecalis (GC 6189) (Enterococcus sp.): 128 µg/mL (≈ 121 µM); MIC Escherichia coli (ATCC 25922) (Escherichia coli): 64 µg/mL (≈ 60.3 µM); MIC Escherichia coli (GC 4559) (Escherichia coli): 64 µg/mL (≈ 60.3 µM); MIC Escherichia coli (GC 4560) (Escherichia coli): 32 µg/mL (≈ 30.1 µM)
2 | CC(c1ccccc1)C1NC(=O)CNC(=O)C(CO)NC(=O)C(C(O)C2CNC(=N)N2C2OC(CO)C(O)C(O)C2O)NC(=O)C(C(O)C2CNC(=N)N2)NC(=O)C(Cc2ccc3oc(-c4cccc([N+](=O)[O-])c4)nc3c2)NC1=O (stereo not drawn) [Example 26, Cyclo[3-[2-(3-nitrophenyl)-1,3-benzoxazol-5-yl)alanyl-3-(2-iminoimidazolidin-4-yl)seryl-3-(3-hexopyranosyl-2-iminoimidazolidin-4-yl)serylserylglycyl-β-methylphenylalanyl]] | 32 (≈ 28.6 µM) | 16 (≈ 14.3 µM) | 16 (≈ 14.3 µM) | 16 (≈ 14.3 µM) | 32 (≈ 28.6 µM) | 16 (≈ 14.3 µM) | 16 (≈ 14.3 µM) | 16 (≈ 14.3 µM) | 32 (≈ 28.6 µM) | 4 (≈ 3.58 µM) | 8 (≈ 7.16 µM) | 16 (≈ 14.3 µM) | 4 (≈ 3.58 µM) | 16 (≈ 14.3 µM) | 4 (≈ 3.58 µM) | 32 (≈ 28.6 µM) | 16 (≈ 14.3 µM) | 8 (≈ 7.16 µM) | 16 (≈ 14.3 µM) | 32 (≈ 28.6 µM) | MIC Enterococcus faecalis (ATCC 29212) (Enterococcus sp.): 32 µg/mL (≈ 28.6 µM); MIC Enterococcus faecalis (GC 2242) (Enterococcus sp.): 64 µg/mL (≈ 57.3 µM); MIC Enterococcus faecium (GC 2243) (Enterococcus sp.): 32 µg/mL (≈ 28.6 µM); MIC Enterococcus faecalis (GC 2691) (Enterococcus sp.): 32 µg/mL (≈ 28.6 µM); MIC Enterococcus faecalis (GC 3059) (Enterococcus sp.): 64 µg/mL (≈ 57.3 µM); MIC Enterococcus faecalis (GC 4552) (Enterococcus sp.): 64 µg/mL (≈ 57.3 µM); MIC Enterococcus faecalis (GC 4553) (Enterococcus sp.): 32 µg/mL (≈ 28.6 µM); MIC Enterococcus faecalis (GC 4554) (Enterococcus sp.): 64 µg/mL (≈ 57.3 µM); MIC Enterococcus faecium (GC 4556) (Enterococcus sp.): 64 µg/mL (≈ 57.3 µM); MIC Enterococcus faecium (GC 4557) (Enterococcus sp.): 8 µg/mL (≈ 7.16 µM); MIC Enterococcus avium (GC 4558) (Enterococcus sp.): 32 µg/mL (≈ 28.6 µM); MIC Enterococcus faecalis (GC 6189) (Enterococcus sp.): 32 µg/mL (≈ 28.6 µM); MIC Escherichia coli (ATCC 25922) (Escherichia coli): 64 µg/mL (≈ 57.3 µM); MIC Escherichia coli (GC 4559) (Escherichia coli): 64 µg/mL (≈ 57.3 µM); MIC Escherichia coli (GC 4560) (Escherichia coli): 16 µg/mL (≈ 14.3 µM)

Source: patent publication US6914045B2, “Glycopeptide antibiotics” (Wyeth Holdings Corporation, priority 2001, dated 2005)
